# How the values were obtained:
# QGP-1 cells [1] = test: Cell cycle analysis by flow cytometry (propidium iodide); type: cell-based, human; details: 24 h
# Procedure: QGP-1 cells are seeded at a density of 10×10^4 cells/ml and pre-incubated overnight. After incubation with or without Quercetin (0-100 μM) for 24 h, cells are harvested by trypsinization and fixed in 70% ethanol at 4° C. overnight. The cells are centrifuged to remove ethanol and washed twice using ice-cold PBS. The cell pallets are resuspended in 500 n1 propidium iodide solution (0.1% Triton X-100, 50 μg/ml propidium iodide in PBS) containing 50 μg/ml RNase and incubated at 37° C. for 30 min and protected from the light. The DNA content of 10,000 cells is detected by BD FASCanto Flow Cytometry and analyzed using […] software (Becton Dickinson, Heidelberg, Germany). The data are representative of those obtained in at least three experiments.
# p-Cdc-2 = test: Western blot of p-Cdc-2 in QGP-1 cells; type: cell-based, human; details: QGP-1, 50-100 μM, 24 h
# Procedure: After drug treatment, the cells are lysed and centrifuged to collect the protein extract After determination of protein content, the samples protein are denatured at 100° C. for 5 min Proteins are separated by 10-12% SDS-PAGE and transferred to PVDF membranes (Bio-Rad, CA). After blocking with 5% nonfat milk for 1 h at room temperature, the membranes are incubated overnight at 4° C. with primary antibodies (mouse anti-cyclin BE 1:500, Abcam; goat anti-p-Cdc2:1:500, Santa Cruz; mouse anti-p21: 1:500, BD Bioscience). After washing three times in TBST, the membranes where incubated with the appropriate secondary antibodies (1:2000, Invitrogen) for 1 h at room temperature. The immunoreaction is detected using ECL Western blotting kit (ECL, Amersham, UK). Bands are visualized on Biomax X-ray film, and optical density of each band is semi-quantified by software (Image J.NIH). In order to adjust for any variations in loading, all detected protein bands are normalized to β-actin levels.
# PI-IBS rats = test: Mechanical stimuli (CRD)-induced 5-HT release: colonic 5-HT content with or without CRD; type: in vivo, rat; details: for 5-HT content of tissue, +CRD: after CRD; for 5-HT content of tissue, -CRD: without CRD; for Decrease of colon tissue 5-HT content after CRD application: not significant
# Procedure: 5-HT content in the colon tissue is assayed based on our previously reported procedure in Qi S D, Tian S L, Xu H X, Sung J J, Bian Z X. Quantification of luminally released serotonin in rat proximal colon by capillary electrophoresis with laser-induced fluorescence detection. Anal Bioanal Chem. 2009 April; 393(8):2059-66. Briefly, the colon segment is homogenized in 15% iced trichloroacetic acid; for 2 min and stored at 4° C. for 2 h. After centrifuge at 10,000 G for 15 min, the supernatant of each sample is filtered using 0.22 μm filters and extracted with diethyl ether for five times to remove the trichloroacetic acid. The prepared samples are added to derivatization solution (150 mM sodium tetraborate, 25% acetonitrile, 2 mM CFSE) and incubated for […] in dark at room temperature. The 5-HT content is analyzed by capillary electrophoresis with laser-induced fluorescence detection and expressed as nanogram per milligram (wet weight of tissue).
# To determine whether mechanical stimuli (CRD) can induce colonic 5-HT release in PI-IBS rats, and whether Quercetin has effect on it, 5-HT content in colonic tissue is evaluated in rats with or without AWR test. The colon tissues for 5-HT content determination are collected from the rats from Example 1 and Example 2, and the methods for 5-HT content determination are followed as described in Example 2.
# QGP-1 cells [2] = test: Sub-G0/G1 fraction by flow cytometry; type: cell-based, human; details: QGP-1, 25~100 μM, 24 h
# Procedure: QGP-1 cells are seeded at a density of 10×10^4 cells/ml and pre-incubated overnight. After incubation with or without Quercetin (0-100 μM) for 24 h, cells are harvested by trypsinization and fixed in 70% ethanol at 4° C. overnight. The cells are centrifuged to remove ethanol and washed twice using ice-cold PBS. The cell pallets are resuspended in 500 n1 propidium iodide solution (0.1% Triton X-100, 50 μg/ml propidium iodide in PBS) containing 50 μg/ml RNase and incubated at 37° C. for 30 min and protected from the light. The DNA content of 10,000 cells is detected by BD FASCanto Flow Cytometry and analyzed using CellFit software (Becton Dickinson, Heidelberg, Germany). The data are representative of those obtained in at least three experiments.
# For flow cytometric analysis, cells with sub-G0/G1 DNA content are stained with propidium iodide, and the methods are as described in section 2 of Example 8. […] Based on the results form LDH assay and apoptosis detection, Quercetin indeed has cytotoxicity and can further induce cell apoptosis.
compound,measurement,setting,value
"O=c1c(O)c(-c2ccc(O)c(O)c2)oc2cc(O)cc(O)c12 [Quercetin, 2-(3,4-dihydroxyphenyl)-3,5,7-trihydroxy-4H-chromen-4-one]",Cells in G0/G1 phase,"QGP-1 cells [1]; QGP-1, 25 μM",56.0 ± 3.5%
same,Cells in G2/M phase,"QGP-1 cells [1]; QGP-1, 25 μM",21.8 ± 3.2%
same,Cells in S phase,"QGP-1 cells [1]; QGP-1, 25 μM",22.3 ± 0.3%
same,Cells in G0/G1 phase,"QGP-1 cells [1]; QGP-1, 50 μM",47.8 ± 4.0 %
same,Cells in G2/M phase,"QGP-1 cells [1]; QGP-1, 50 μM",20.2 ± 4.29%
same,Cells in S phase,"QGP-1 cells [1]; QGP-1, 50 μM",32.0 ± 0.4 %
same,Cells in G0/G1 phase,"QGP-1 cells [1]; QGP-1, 100 μM",8.4 ± 1.7 %
same,Cells in G2/M phase,"QGP-1 cells [1]; QGP-1, 100 μM",47.7 ± 2.2 %
same,Cells in S phase,"QGP-1 cells [1]; QGP-1, 100 μM",43.9 ± 0.7 %
same,Protein level of p-Cdc-2,p-Cdc-2,significantly decrease
same,"5-HT content of tissue, +CRD",PI-IBS rats; 5 mg/kg i.g.,4.96 ± 0.91^ ng/mg
same,"5-HT content of tissue, -CRD",PI-IBS rats; 5 mg/kg i.g.,5.15 ± 0.58 ng/mg
same,"5-HT content of tissue, +CRD",PI-IBS rats; 10 mg/kg i.g.,4.29 ± 0.58^ ng/mg
same,"5-HT content of tissue, -CRD",PI-IBS rats; 10 mg/kg i.g.,4.63 ± 0.92 ng/mg
same,"5-HT content of tissue, +CRD",PI-IBS rats; 20 mg/kg i.g.,4.01 ± 1.14 ng/mg
same,"5-HT content of tissue, -CRD",PI-IBS rats; 20 mg/kg i.g.,5.50 ± 0.65^ ng/mg
same,Decrease of colon tissue 5-HT content after CRD application,PI-IBS rats; low dose,~3.67%
same,Decrease of colon tissue 5-HT content after CRD application,PI-IBS rats; median dose,~7.34%
same,Sub-G0/G1 fraction,QGP-1 cells [2],concentration-dependently increases

# — patent US20130210907A1, “METHOD FOR PREVENTING OR TREATING ENTEROCHROMAFFIN CELL HYPERPLASIA-RELATED DISEASES BY QUERCETIN ADMINISTRATION” (HONG KONG BAPTIST UNIVERSITY, priority 2012, published 2013)
